Experimental data from patent publication US8026278B2, “Inhibitors of pyruvate kinase as therapeutic agents for cancer” (priority 2005, dated 2011).

How the values were obtained:
[1] = tested on: MCF7 (breast) cancer cell line; assay: MTT assay, inhibition of cell proliferation, MCF7; assay type: cell-based; conditions: MCF7, 72 hours
Procedure: (§1) The compounds of the invention were tested for their inhibition potential of cell proliferation. MCF7 (breast) and SF268 (glioma) cancer cell lines were incubated with different concentrations of the compounds and their viability was assessed using an MTT (3-(4,5-dimethylthiazol-2-yl)-2,5-diphenyltetrazolium bromide) assay. The MTT assay is well known in the art (see for example Slater et al., Biochim. Biophys. Acta 77 (1963) 383). The cells were incubated with a given inhibitor for 72 hours and assayed.

[2] = biological target: T1, Pyruvate kinase isolated from rabbit muscle (Oryctolagus cuniculus, UniProt P11974); assay: Inhibition of pyruvate kinase (indirect assay quantifying ADP production); assay type: biochemical
T1 construct: Pyruvate kinase isolated from rabbit muscle; purchased Sigma-Aldrich; host or cells: rabbit muscle (tissue-derived enzyme)
Procedure: The compounds E-3-chlorophosphoenolpyruvate ditriethyl-ammonium salt (ECPDAT), Z-3-chlorophosphoenolpyruvate tritriethyl-ammonium salt (CPTP), phosphoenol-3-bromo-pyruvic acid mono-cyclohexyl ammonium salt (PBPA), 2-bromooxoethylphosphonic acid mono-cyclohexyl-ammonium salt (BOEPA) and 3-bromopyruvic acid (BrPyA) were tested for their efficiency at inhibiting pyruvate kinase. Pyruvate kinase isolated from rabbit muscle was purchased from Sigma-Aldrich. Pyruvate kinase was assayed indirectly by quantifying ADP production formed in the reaction ATP+pyruvate to ADP+phosphoenolpyruvate. Inhibitors were added to the reaction mixture immediately before the reaction was started by the addition of ATP.

[3] = tested on: SF268 (glioma) cancer cell line; assay: MTT assay, inhibition of cell proliferation, SF268; assay type: cell-based; conditions: SF268, 72 hours
Procedure: as §1

T1 sequence (P11974 whole entry): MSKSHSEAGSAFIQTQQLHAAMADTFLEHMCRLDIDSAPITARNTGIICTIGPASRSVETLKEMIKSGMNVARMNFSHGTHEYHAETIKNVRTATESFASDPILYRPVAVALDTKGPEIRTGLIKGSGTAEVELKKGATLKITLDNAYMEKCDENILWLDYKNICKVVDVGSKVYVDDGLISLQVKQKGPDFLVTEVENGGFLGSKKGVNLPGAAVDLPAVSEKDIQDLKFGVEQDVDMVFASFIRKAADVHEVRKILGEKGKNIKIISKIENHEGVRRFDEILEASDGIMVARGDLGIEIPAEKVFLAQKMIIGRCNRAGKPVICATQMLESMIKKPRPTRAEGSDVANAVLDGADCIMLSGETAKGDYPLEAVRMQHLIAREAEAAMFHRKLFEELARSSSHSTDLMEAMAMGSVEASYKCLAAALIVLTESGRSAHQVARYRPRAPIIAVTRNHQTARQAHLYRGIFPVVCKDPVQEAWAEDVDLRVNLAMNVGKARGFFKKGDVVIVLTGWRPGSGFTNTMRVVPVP

## E-3-chlorophosphoenolpyruvate ditriethyl-ammonium salt [E-CPDA]
[1]
  Inhibition of cell proliferation: inhibited cell proliferation
[1]; 10 uM
  % (A-Blank relative to control): 101.1%
  A-Blank (Average-Blank) O.D. at 570 nm: 0.8245 O.D.
  Average O.D. reading at 570 nm: 0.91 O.D.
[1]; 25 uM
  % (A-Blank relative to control): 97.333%
  A-Blank (Average-Blank) O.D. at 570 nm: 0.7938 O.D.
  Average O.D. reading at 570 nm: 0.8793 O.D.
[1]; 50 uM
  % (A-Blank relative to control): 86.726%
  A-Blank (Average-Blank) O.D. at 570 nm: 0.7073 O.D.
  Average O.D. reading at 570 nm: 0.7928 O.D.
[1]; 75 uM
  % (A-Blank relative to control): 78.449%
  A-Blank (Average-Blank) O.D. at 570 nm: 0.6398 O.D.
  Average O.D. reading at 570 nm: 0.7253 O.D.
[1]; 100 uM
  % (A-Blank relative to control): 72.072%
  A-Blank (Average-Blank) O.D. at 570 nm: 0.5878 O.D.
  Average O.D. reading at 570 nm: 0.6733 O.D.
[1]; 200 uM
  % (A-Blank relative to control): 68.486%
  A-Blank (Average-Blank) O.D. at 570 nm: 0.5585 O.D.
  Average O.D. reading at 570 nm: 0.644 O.D.
[1]; 300 uM
  % (A-Blank relative to control): 7.8786%
  A-Blank (Average-Blank) O.D. at 570 nm: 0.06425 O.D.
  Average O.D. reading at 570 nm: 0.1497 O.D.
[1]; 500 uM
  % (A-Blank relative to control): 2.759%
  A-Blank (Average-Blank) O.D. at 570 nm: 0.0225 O.D.
  Average O.D. reading at 570 nm: 0.108 O.D.
[2]
  Inhibition of pyruvate kinase compared with BrPyA: inhibited pyruvate kinase at lower concentrations than BrPyA
[2]; Concentration 0.1 μM
  % Inhibition: 0%
[2]; Concentration 1 μM
  % Inhibition: 10.9%
[2]; Concentration 10 μM
  % Inhibition: 100%
[3]
  Inhibition of cell proliferation: inhibited cell proliferation
[3]; 10 uM
  % (A-Blank relative to control): 80.1%
  A-Blank (Average-Blank) O.D. at 570 nm: 0.672 O.D.
  Average O.D. reading at 570 nm: 0.777 O.D.
[3]; 25 uM
  % (A-Blank relative to control): 80.453%
  A-Blank (Average-Blank) O.D. at 570 nm: 0.675 O.D.
  Average O.D. reading at 570 nm: 0.78 O.D.
[3]; 50 uM
  % (A-Blank relative to control): 64.243%
  A-Blank (Average-Blank) O.D. at 570 nm: 0.539 O.D.
  Average O.D. reading at 570 nm: 0.644 O.D.
[3]; 75 uM
  % (A-Blank relative to control): 44.458%
  A-Blank (Average-Blank) O.D. at 570 nm: 0.373 O.D.
  Average O.D. reading at 570 nm: 0.478 O.D.
[3]; 100 uM
  % (A-Blank relative to control): 30.513%
  A-Blank (Average-Blank) O.D. at 570 nm: 0.256 O.D.
  Average O.D. reading at 570 nm: 0.361 O.D.
[3]; 200 uM
  % (A-Blank relative to control): 13.23%
  A-Blank (Average-Blank) O.D. at 570 nm: 0.111 O.D.
  Average O.D. reading at 570 nm: 0.216 O.D.
[3]; 300 uM
  % (A-Blank relative to control): 6.555%
  A-Blank (Average-Blank) O.D. at 570 nm: 0.055 O.D.
  Average O.D. reading at 570 nm: 0.16 O.D.
[3]; 500 uM
  % (A-Blank relative to control): 3.099%
  A-Blank (Average-Blank) O.D. at 570 nm: 0.026 O.D.
  Average O.D. reading at 570 nm: 0.131 O.D.

## Z-3-chlorophosphoenolpyruvate tritriethyl-ammonium salt [CPTP]
[1]
  Inhibition of cell proliferation: inhibited cell proliferation
[1]; 10 uM
  % (A-Blank relative to control): 98.7%
  A-Blank (Average-Blank) O.D. at 570 nm: 0.7995 O.D.
  Average O.D. reading at 570 nm: 0.8822 O.D.
[1]; 25 uM
  % (A-Blank relative to control): 98.796%
  A-Blank (Average-Blank) O.D. at 570 nm: 0.8003 O.D.
  Average O.D. reading at 570 nm: 0.883 O.D.
[1]; 50 uM
  % (A-Blank relative to control): 101.05%
  A-Blank (Average-Blank) O.D. at 570 nm: 0.8185 O.D.
  Average O.D. reading at 570 nm: 0.9013 O.D.
[1]; 75 uM
  % (A-Blank relative to control): 96.173%
  A-Blank (Average-Blank) O.D. at 570 nm: 0.779 O.D.
  Average O.D. reading at 570 nm: 0.8618 O.D.
[1]; 100 uM
  % (A-Blank relative to control): 96.358%
  A-Blank (Average-Blank) O.D. at 570 nm: 0.7805 O.D.
  Average O.D. reading at 570 nm: 0.8633 O.D.
[1]; 200 uM
  % (A-Blank relative to control): 88.241%
  A-Blank (Average-Blank) O.D. at 570 nm: 0.7148 O.D.
  Average O.D. reading at 570 nm: 0.7975 O.D.
[1]; 300 uM
  % (A-Blank relative to control): 81.4198%
  A-Blank (Average-Blank) O.D. at 570 nm: 0.6595 O.D.
  Average O.D. reading at 570 nm: 0.7422 O.D.
[1]; 500 uM
  % (A-Blank relative to control): 71.39%
  A-Blank (Average-Blank) O.D. at 570 nm: 0.5783 O.D.
  Average O.D. reading at 570 nm: 0.661 O.D.
[2]
  Inhibition of pyruvate kinase compared with BrPyA: inhibited pyruvate kinase at lower concentrations than BrPyA
[2]; Concentration 0.1 μM
  % Inhibition: 0%
[2]; Concentration 1 μM
  % Inhibition: 43.7%
[2]; Concentration 10 μM
  % Inhibition: 48.4%
[3]
  Inhibition of cell proliferation: inhibited cell proliferation
[3]; 10 uM
  % (A-Blank relative to control): 99.42%
  A-Blank (Average-Blank) O.D. at 570 nm: 0.6887 O.D.
  Average O.D. reading at 570 nm: 0.775 O.D.
[3]; 25 uM
  % (A-Blank relative to control): 99.892%
  A-Blank (Average-Blank) O.D. at 570 nm: 0.692 O.D.
  Average O.D. reading at 570 nm: 0.7783 O.D.
[3]; 50 uM
  % (A-Blank relative to control): 98.232%
  A-Blank (Average-Blank) O.D. at 570 nm: 0.6805 O.D.
  Average O.D. reading at 570 nm: 0.7668 O.D.
[3]; 75 uM
  % (A-Blank relative to control): 93.829%
  A-Blank (Average-Blank) O.D. at 570 nm: 0.65 O.D.
  Average O.D. reading at 570 nm: 0.7363 O.D.
[3]; 100 uM
  % (A-Blank relative to control): 96.752%
  A-Blank (Average-Blank) O.D. at 570 nm: 0.6703 O.D.
  Average O.D. reading at 570 nm: 0.7565 O.D.
[3]; 200 uM
  % (A-Blank relative to control): 75.893%
  A-Blank (Average-Blank) O.D. at 570 nm: 0.5258 O.D.
  Average O.D. reading at 570 nm: 0.612 O.D.
[3]; 300 uM
  % (A-Blank relative to control): 57.4883%
  A-Blank (Average-Blank) O.D. at 570 nm: 0.3982 O.D.
  Average O.D. reading at 570 nm: 0.4845 O.D.
[3]; 500 uM
  % (A-Blank relative to control): 36.8459%
  A-Blank (Average-Blank) O.D. at 570 nm: 0.2552 O.D.
  Average O.D. reading at 570 nm: 0.3415 O.D.
